Measured values as given in ChEMBL document CHEMBL4145590, “SAR Studies of N-[2-(1H-Tetrazol-5-yl)phenyl]benzamide Derivatives as Potent G Protein-Coupled Receptor-35 Agonists” (ACS Med Chem Lett, 2018).
Active and inactive are the calls of the source. The rule behind the calls is not given here.

Tests used:
[1] = target: T1, G-protein coupled receptor 35 (Homo sapiens, UniProt Q9HC97); test: Agonist activity at GPR35 in human HT-29 cells in presence of GPR35 antagonist ML-145 by dynamic mass redistribution assay; assay type: functional, cell-based
T1 sequence (Q9HC97 whole entry): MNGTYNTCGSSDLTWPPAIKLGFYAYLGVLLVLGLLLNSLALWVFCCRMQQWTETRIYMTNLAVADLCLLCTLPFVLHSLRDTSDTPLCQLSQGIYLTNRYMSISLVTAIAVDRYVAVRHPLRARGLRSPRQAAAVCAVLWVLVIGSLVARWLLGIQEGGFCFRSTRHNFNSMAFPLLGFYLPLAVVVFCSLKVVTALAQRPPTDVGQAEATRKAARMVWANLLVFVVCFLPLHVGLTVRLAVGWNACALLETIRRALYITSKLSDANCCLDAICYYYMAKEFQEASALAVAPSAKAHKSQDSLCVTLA

[2] = target: T1, G-protein coupled receptor 35; test: Desensitization of GPR35 in human HT-29 cells assessed as inhibition of zaprinast-induced dynamic mass redistribution pretreated for 1 hr followed by zaprinast stimulation; assay type: functional, cell-based
[3] = target: T1, G-protein coupled receptor 35; test: Agonist activity at GPR35 in human HT-29 cells by dynamic mass redistribution assay; assay type: functional, cell-based
[4] = target: T1, G-protein coupled receptor 35; test: Agonist activity at recombinant human N-terminal FLAG/eYFP-fused GPR35a expressed in CHOK1 cells assessed as induction of beta-arrestin recruitment by path hunter assay; assay type: cell-based
[5] = target: T1, G-protein coupled receptor 35; test: Agonist activity at GPR35 in human HT-29 cells assessed as increase in ERK1/2 phosphorylation at 0.1 to 1 uM pretreated for 10 mins followed by GPR35 antagonist ML-145 addition measured after 5 mins by Western blot analysis; assay type: functional, cell-based
[6] = target: T1, G-protein coupled receptor 35; test: Agonist activity at GPR35 in human HT-29 cells assessed as increase in ERK1/2 phosphorylation at 0.1 to 1 uM after 15 mins by Western blot analysis; assay type: functional, cell-based
[7] = target: G protein-coupled receptor GPR35 (Rattus norvegicus, UniProt Q33BM1); test: Agonist activity at recombinant rat N-terminal FLAG/eYFP-fused GPR35 expressed in HEK293 cells assessed as induction of beta-arrestin recruitment by BRET assay; assay type: functional, cell-based
Sequence of G protein-coupled receptor GPR35 (Q33BM1 whole entry, the tested form may be a part): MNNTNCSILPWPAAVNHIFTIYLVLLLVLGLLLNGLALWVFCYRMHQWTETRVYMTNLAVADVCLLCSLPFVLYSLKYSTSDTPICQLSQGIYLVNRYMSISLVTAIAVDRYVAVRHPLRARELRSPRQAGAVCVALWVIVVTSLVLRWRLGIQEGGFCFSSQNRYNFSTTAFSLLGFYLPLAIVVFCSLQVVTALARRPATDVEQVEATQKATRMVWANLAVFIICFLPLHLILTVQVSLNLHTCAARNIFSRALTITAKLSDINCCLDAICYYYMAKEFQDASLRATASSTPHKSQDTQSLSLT

O=C(Nc1cc(Br)ccc1-c1nnn[nH]1)c1cccc(C(F)(F)F)c1
Activity [1]: inactive
IC50 [2]: 1280 nM
Activity [3]: Dose-dependent effect
EC50 ([3]; read-out: EC50): 4600 nM

O=C(Nc1cc(Br)ccc1-c1nnn[nH]1)c1cccc(F)c1
Activity [1]: inactive
IC50 [2]: 210 nM
Activity [3]: Dose-dependent effect
EC50 ([3]; read-out: EC50): 610 nM

O=C(Nc1cc(Br)ccc1-c1nnn[nH]1)c1ccccc1F
Activity [1]: inactive
IC50 [2]: 170 nM
Activity [3]: Dose-dependent effect
EC50 ([3]; read-out: EC50): 350 nM

CC(C)C(=O)Nc1cc(Br)ccc1-c1nnn[nH]1
Activity [1]: inactive
IC50 [2]: 280 nM
Activity [3]: Dose-dependent effect
EC50 ([3]; read-out: EC50): 380 nM

O=C(Nc1cc(Br)ccc1-c1nnn[nH]1)c1ccc(Cl)cc1
Activity [1]: inactive
IC50 [2]: 210 nM
Activity [3]: Dose-dependent effect
EC50 ([3]; read-out: EC50): 520 nM

COc1ccccc1C(=O)Nc1cc(Br)ccc1-c1nnn[nH]1
Activity [1]: inactive
IC50 [2]: 400 nM
Activity [3]: Dose-dependent effect
EC50 ([3]; read-out: EC50): 860 nM

COc1ccc(C(=O)Nc2cc(Br)ccc2-c2nnn[nH]2)cc1OC
Activity [1]: inactive
IC50 [2]: 260 nM
Activity [3]: Dose-dependent effect
EC50 ([3]; read-out: EC50): 830 nM

COc1ccc(C(=O)Nc2ccccc2C#N)cc1
Activity [1]: inactive
EC50 ([3]; ht-29): Not Active

O=C(Nc1cc(Br)ccc1-c1nnn[nH]1)c1ccc(Cl)cc1Cl
Activity [1]: inactive
IC50 [2]: 110 nM
Activity [3]: Dose-dependent effect
EC50 ([3]; read-out: EC50): 310 nM

Cc1ccccc1C(=O)Nc1cc(Br)ccc1-c1nnn[nH]1
Activity [1]: inactive
IC50 [2]: 810 nM
Activity [3]: Dose-dependent effect
EC50 ([3]; read-out: EC50): 2050 nM

COc1cccc(C(=O)Nc2cc(Br)ccc2-c2nnn[nH]2)c1
Activity [1]: inactive
IC50 [2]: 810 nM
Activity [3]: Dose-dependent effect
EC50 ([3]; read-out: EC50): 1940 nM

O=C(Nc1cc(Br)ccc1-c1nnn[nH]1)c1cccc(Cl)c1
Activity [1]: inactive
IC50 [2]: 480 nM
Activity [3]: Dose-dependent effect
EC50 ([3]; read-out: EC50): 2180 nM

Cc1ccc(C(=O)Nc2cc(Br)ccc2-c2nnn[nH]2)cc1
Activity [1]: inactive
IC50 [2]: 510 nM
Activity [3]: Dose-dependent effect
EC50 ([3]; read-out: EC50): 1330 nM

COc1ccc(C(=O)Nc2ccc(Br)cc2-c2nnn[nH]2)cc1
Activity [1]: inactive
IC50 [2]: 110 nM
Activity [3]: Dose-dependent effect
EC50 ([3]; read-out: EC50): 300 nM

O=C(Nc1cc(Br)ccc1-c1nnn[nH]1)c1ccccc1Cl
Activity [1]: inactive
IC50 [2]: 410 nM
Activity [3]: Dose-dependent effect
EC50 ([3]; read-out: EC50): 870 nM

O=C(Nc1cc(Br)ccc1-c1nnn[nH]1)c1ccc(F)cc1
Activity [1]: inactive
IC50 [2]: 160 nM
Activity [3]: Dose-dependent effect
EC50 ([3]; read-out: EC50): 450 nM

O=C(Nc1cc(Br)ccc1-c1nnn[nH]1)c1ccccc1
Activity [1]: inactive
IC50 [2]: 300 nM
Activity [3]: Dose-dependent effect
EC50 ([3]; read-out: EC50): 870 nM

O=C(Nc1cc(Br)ccc1-c1nnn[nH]1)c1cccs1
Activity [1]: inactive
IC50 [2]: 260 nM
Activity [3]: Dose-dependent effect
EC50 ([3]; read-out: EC50): 510 nM

COc1ccc(C(=O)Nc2ccc(-c3nnn[nH]3)cc2)cc1
Activity [1]: inactive
IC50 [2]: 8360 nM
Activity [3]: Dose-dependent effect
EC50 ([3]; read-out: EC50): 17600 nM

O=C(Nc1cc(Br)ccc1-c1nnn[nH]1)C1CCCCC1
Activity [1]: inactive
IC50 [2]: 200 nM
Activity [3]: Dose-dependent effect
EC50 ([3]; read-out: EC50): 440 nM

Cc1cccc(C(=O)Nc2cc(Br)ccc2-c2nnn[nH]2)c1
Activity [1]: inactive
IC50 [2]: 360 nM
Activity [3]: Dose-dependent effect
EC50 ([3]; read-out: EC50): 860 nM

O=C(Nc1cc(Br)ccc1-c1nnn[nH]1)c1ccc(C(F)(F)F)cc1
Activity [1]: inactive
IC50 [2]: 1360 nM
Activity [3]: Dose-dependent effect
EC50 ([3]; read-out: EC50): 3650 nM

COc1ccc(C(=O)Nc2cc(Br)ccc2-c2nnn[nH]2)c(F)c1
Activity [1]: inactive
IC50 [2]: 14 nM
Activity [3]: Dose-dependent effect
EC50 ([3]; read-out: EC50): 41 nM

O=C1c2ccccc2S(=O)(=O)c2cc(-c3nnn[nH]3)ccc21 [DOXANTRAZOLE]
EC50 [4]: 3400 nM

O=C(Nc1cc(Br)ccc1-c1nnn[nH]1)c1ccc(F)cc1F
Activity [5]: inactive
Activity [1]: inactive
IC50 [2]: 60 nM
Activity [3]: Dose-dependent effect
EC50 ([3]; read-out: EC50): 130 nM
Activity [6]: Active

COc1ccc(C(=O)Nc2cc(Br)ccc2-c2nnn[nH]2)cc1
Activity [5]: inactive
Activity [1]: inactive
IC50 [2]: 26 nM
Activity [3]: Dose-dependent effect
EC50 ([3]; read-out: EC50): 59 nM
Activity [6]: Active

O=C(Nc1cc(Br)ccc1-c1nnn[nH]1)c1ccco1
Activity [1]: inactive
IC50 [2]: 440 nM
Activity [3]: Dose-dependent effect
EC50 ([3]; read-out: EC50): 1060 nM

Cc1cccn2c(=O)c(-c3nnn[nH]3)cnc12 [PEMIROLAST]
EC50 [7]: 95 nM

Nc1ccc(Br)cc1-c1nnn[nH]1
Activity [1]: inactive
IC50 [2]: 75300 nM
Activity [3]: Dose-dependent effect
EC50 ([3]; read-out: EC50): 44100 nM

CCC(=O)Nc1cc(Br)ccc1-c1nnn[nH]1
Activity [1]: inactive
IC50 [2]: 700 nM
Activity [3]: Dose-dependent effect
EC50 ([3]; read-out: EC50): 620 nM

COc1ccc(C(=O)Nc2cc(F)ccc2-c2nnn[nH]2)cc1
Activity [1]: inactive
IC50 [2]: 82 nM
Activity [3]: Dose-dependent effect
EC50 ([3]; read-out: EC50): 200 nM

COc1ccc(C(=O)Nc2ccccc2-c2nn[nH]n2)cc1
Activity [1]: inactive
IC50 [2]: 280 nM
Activity [3]: Dose-dependent effect
EC50 ([3]; read-out: EC50): 650 nM
